Experimental findings from US20210253598A1, “ARYL ANNULATED MACROCYCLIC INDOLE DERIVATIVES” (priority 2017, published 2021) are described below.

For one series, the system named is AMO-1. Put plainly: Anti-proliferative effect in AMO-1 cells, CellTiter-Glo (Assay 7). Type of series: cell-based. On the procedure:
(§1) Assessment of the Anti-Proliferative Effect of Compounds in Different Cell Lines
(§2) The impact of compounds on the proliferation of different cell lines was assessed using the CellTiter-Glo® Luminescent Cell Viability reagent from Promega (G7573).
(§3) In parallel, cells were plated in a reference (day 0) plate for time zero determination. Cells were incubated in a humidified incubator at 37° C. overnight.
(§4) Rim wells were excluded. The cells were incubated for 72 hours in a humidified incubator at 37° C. The day 0 plate was measured by adding 30 μL/well of CTG solution (CellTiter-Glo® Luminescent Cell Viability reagent, Promega G7573) to time zero wells in the reference plate followed by a 10 minutes incubation and luminescence reading at 0.1 ms. using the PHERAstar FS microplate reader (BMG Labtech).
(§5) After 72 hours incubation, the treated plates were measured in the same way as the day 0 plate mentioned above. The Bella DRC Master Sheet was used to calculate IC50s, with CI=day 0 values and C0=DMSO control values.

In a further series the test system is MV-4-11. Description: Anti-proliferative effect in MV-4-11 cells, CellTiter-Glo (Assay 7). Conditions: several values per example. In kind it is cell-based. A digest of the protocol:
(§6)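 Proliferation is measured as luminescence from CellTiter-Glo after cells grow with compound for 72 h in a humidified 37 °C incubator. A reference plate read at time zero supplies the day 0 baseline, and DMSO wells serve as control for IC50 calculation.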
In general terms: Cellular ATP, detected with luciferase, serves as a proxy for viable cell number.

The test system of the next series is A2780. Put plainly: Anti-proliferative effect in A2780 cells, CellTiter-Glo (Assay 7). Conditions: several values per example. In kind it is cell-based. The procedure:
as §1, §2, §3, §4, §5

In series [1] the test system is SUDHL5. Put plainly: Anti-proliferative effect in SUDHL5 cells, CellTiter-Glo (Assay 7). Type of series: cell-based. Put shortly:
as §6

The subject of series [2] is SUDHL5. Description: Induction of caspase-3/7 activity in SUDHL5 cells (Assay 4). In kind it is cell-based. Put shortly:
(§7)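 DLBCL lines SUDHL5 and SUDHL10 were treated with compound for 3 h at 37 °C. Caspase-3/7 activity was then read by Caspase-Glo 3/7 luminescence after 1 h at 37 °C. Medium-only background was subtracted and values were normalized to the mean of DMSO-treated cells.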

The subject of series [3] is SUDHL10. Put plainly: Induction of caspase-3/7 activity in SUDHL10 cells (Assay 4). In kind it is cell-based. A digest of the protocol:
as §7

Series [4] deals with SUDHL10. Put plainly: Induction of cytotoxicity in SUDHL10 cells, CellTiter-Glo (Assay 6). In kind it is cell-based. The note with it: SUDHL10, 5 hours incubation, median, read-out: Cytotox SUDHL10 [M] (median). Put shortly: (§8)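 Cells plated and held overnight at 37 °C, then compound-treated for 5 h at 37 °C. Viability measured by CellTiter-Glo luminescence after 15 min shaking at room temperature; cell-free medium as background control.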

Another series concerns the target MCL-1 (Homo sapiens, UniProt Q07820, K194A/K197A/R201A). Put plainly: Protein-protein interaction assay MCL-1/Noxa BH3 peptide, TR-FRET (MCL-1 assay, Assay 1). Conditions: MCL-1 Assay [M] (median), MBP-MCL-1 / Noxa BH3 peptide. In kind it is binding. Put shortly: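 Human MBP-fused MCL-1 (aa 173-321; 1 nM final) was pre-incubated 10 min at 22 °C with compound in pH 7 Tris buffer containing NaCl, KF, Tween-20, DTT and BGG. Displacement of biotinylated Noxa BH3 peptide was read by TR-FRET (anti-MBP-Eu cryptate/streptavidin-XL665) after 1 h at 22 °C plus overnight at 4 °C. IC50 came from four-parameter fits against DMSO controls.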

For series [5], the system named is SUDHL5. Put plainly: Induction of cytotoxicity in SUDHL5 cells, CellTiter-Glo (Assay 6). In kind it is cell-based. The note with it: SUDHL5, 5 hours incubation, median, read-out: Cytotox SUDHL5 [M] (median). A digest of the protocol: as §8
Where [6] appears, read: AMO-1, 72 hours incubation, CellTiter-Glo; several values per example; read-out: Antiproli AMO-1.
Setting [7] is: MV-4-11, 72 hours incubation, CellTiter-Glo, read-out: Antiproli MV-4-11.
Setting [8] is: A2780, 72 hours incubation, CellTiter-Glo, read-out: Antiproli A2780.
Where [9] appears, read: Homo sapiens, SU-DHL-5, 72 h, SUDHL5, 72 hours incubation, CellTiter-Glo, median, read-out: Antiproli SUDHL5 [M] (median).
Setting [10] is: Homo sapiens, SU-DHL-5, 3 h, SUDHL5, 3 hours treatment, Caspase-Glo 3/7, median, read-out: Caspase SUDHL5 [M] (median).
[11] abbreviates: Homo sapiens, AMO1, 72 h, AMO-1, 72 hours incubation, CellTiter-Glo; several values per example; read-out: Antiproli AMO-1.
[12] abbreviates: Homo sapiens, MV4-11, 72 h, MV-4-11, 72 hours incubation, CellTiter-Glo, read-out: Antiproli MV-4-11.
The mark [13] stands for this setting: Homo sapiens, SU-DHL10, 3 h, SUDHL10, 3 hours treatment, Caspase-Glo 3/7, median, read-out: Caspase SUDHL10 [M] (median).
Setting [14] is: Homo sapiens, A2780, 72 h, A2780, 72 hours incubation, CellTiter-Glo, read-out: Antiproli A2780.
[15] abbreviates: read-out: Antiproli SUDHL5 [M] (median), SUDHL5, 72 hours incubation, CellTiter-Glo.
The mark [16] stands for this setting: read-out: Caspase SUDHL5 [M] (median), SUDHL5, 3 hours treatment, Caspase-Glo 3/7.
Setting [17] is: read-out: Antiproli AMO-1; AMO-1, 72 hours incubation, CellTiter-Glo; several values per example.
[18] abbreviates: read-out: Antiproli MV-4-11, MV-4-11, 72 hours incubation, CellTiter-Glo.
The mark [19] stands for this setting: read-out: Caspase SUDHL10 [M] (median), SUDHL10, 3 hours treatment, Caspase-Glo 3/7.
[20] abbreviates: read-out: Antiproli A2780, A2780, 72 hours incubation, CellTiter-Glo.

Where “and” joins values, the source holds several entries; their conditions need not be identical. Equal entries are not always repeated. Structures can show the parent of a compound that is named as a salt. Where two headings read alike, the source gives them in different places. Bounds are passed on as bounds.

Sequence of MCL-1 (Q07820 173-321 K194A/K197A/R201A, looked up): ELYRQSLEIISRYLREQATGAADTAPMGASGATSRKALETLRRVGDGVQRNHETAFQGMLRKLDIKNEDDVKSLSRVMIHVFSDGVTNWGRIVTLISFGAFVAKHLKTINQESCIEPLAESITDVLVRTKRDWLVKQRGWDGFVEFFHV

For the compound `Cc1c2c(nn1C)COCc1cccnc1Cn1c(C(=O)O)c(CCCOc3cccc4ccccc34)c3cccc-2c31` [Example 05], the IC50 was found to be 8.78 µM in the series on AMO-1 (setting [6]), 5.48e-06 M in the series on MV-4-11 (setting [7]) and 6.65e-06 M in the series on A2780 (setting [8]).
Consider `CCc1nn(C)c2c1-c1c(Cl)ccc3c(CCCOc4cccc5cc(F)ccc45)c(C(=O)O)n(c13)Cc1ccccc1COC2` (racemic) [Example 57, (rac)-3-Chloro-4-ethyl-17-{3-[(6-fluoronaphthalen-1-yl)oxy]propyl}-6-methyl-6,7,9,14-tetrahydro-indolo[7,1-fg]pyrazolo[3,4-d][2,8]benzoxazacycloundecine-16-carboxylic Acid], for which the IC50 in the series on SUDHL5 [1] (setting [9]) turned out to be 2.4e-06 M; in the series on AMO-1 (setting [11]), 2.65 µM; in the series on MV-4-11 (setting [12]), 2.19e-06 M; in the series with A2780 (setting [14]) it was 7.02e-06 M; with SUDHL10 [4] (Homo sapiens, SU-DHL10, 5 h), 4.6e-06 M; against MCL-1, 2.7e-09 M. The EC50 in the series with SUDHL5 [2] (setting [10]) stood at 1.5e-06 M; in the series on SUDHL10 [3] (setting [13]), 4.3e-06 M.
`Cc1c2c(nn1C)COCc1cccnc1Cn1c(C(=O)O)c(CCCOc3cccc4ccccc34)c3ccc(Cl)c-2c31` (single isomer, unassigned; enantiomer 2) [Example 41, 3-Chloro-4,5-dimethyl-17-[3-(naphthalen-1-yloxy)propyl]-5,7,9,14-tetrahydropyrazolo-[4′,3′:9,10]pyrido[3′,2′:3,4][1,6]oxazacycloundecino[8,7,6-hi]indole-16-carboxylic acid-N-ethylethanamine Salt (Enantiomer 2)]: the IC50 in the series on SUDHL5 [1] (setting [15]) was 5.2e-06 M; with AMO-1 (setting [17]) it was 8.4 µM and 11.2 µM; with MV-4-11 (setting [18]) it was 1.59e-05 M and 8.2e-06 M; in the series with A2780 (setting [20]), above 3.3e-05 M; in the series with SUDHL10 [4], 1.4e-05 M; in the series with SUDHL5 [5] it was 6e-06 M. On MCL-1, this compound displayed an IC50 of 5.8e-09 M. In addition, the EC50 turned out to be 6.1e-06 M with SUDHL5 [2] (setting [16]) and 1.6e-05 M in the series with SUDHL10 [3] (setting [19]).
With `Cc1c2c(nn1C)CN(S(=O)(=O)CCN1CCOCC1)Cc1ccccc1Cn1c(C(=O)O)c(CCCOc3cccc4ccccc34)c3cccc-2c31` (single isomer, unassigned; enantiomer 1) [Example 31, (+)-4,5-Dimethyl-8-[2-(morpholin-4-yl)ethanesulfonyl]-17-{3-[(naphthalen-1-yl)oxy]propyl}-7,8,9,14-tetrahydro-5H-indolo[1,7-bc]pyrazolo[4,3-e][2,8]benzodiazacycloundecine-16-carboxylic acid-N-ethylethanamine Salt (Enantiomer 1)], the IC50 is 4.8e-06 M in the series with SUDHL5 [1] (Homo sapiens, SU-DHL-5, 72 h, read-out: Antiproli SUDHL5 [M] (median), SUDHL5, 72 hours incubation, CellTiter-Glo); 5.93 µM in the series with AMO-1 (setting [17]); 5.49e-06 M in the series on MV-4-11 (Homo sapiens, MV4-11, 72 h, read-out: Antiproli MV-4-11 [M], MV-4-11, 72 hours incubation, CellTiter-Glo); 6.72e-06 M in the series with A2780 (Homo sapiens, A2780, 72 h, read-out: Antiproli A2780 [M], A2780, 72 hours incubation, CellTiter-Glo); above 7.8e-05 M in the series with SUDHL10 [4]; 5.3e-06 M in the series with SUDHL5 [5]. At MCL-1, the IC50 worked out at 1.3e-08 M. Further, the EC50 with SUDHL5 [2] (setting [16]) turned out to be 5.2e-06 M; in the series with SUDHL10 [3] (setting [19]) it was 9.7e-06 M.
Turning to `Cc1nn(C)c2c1-c1c(F)ccc3c(CCCOc4cccc5c4CCCC5)c(C(=O)O)n(c13)Cc1ccccc1COC2` (racemic) [Example 83, (rac)-15-Fluoro-12,14-dimethyl-1-(3-((5,6,7,8-tetrahydronaphthalen-1-yl)oxy)propyl)-4,9,11,12-tetrahydrobenzo[3,4]pyrazolo[4′,3′:9,10][1]oxa[6]azacycloundecino[8,7,6-hi]indole-2-carboxylic Acid], the IC50 stood at 4.9e-06 M in the series on SUDHL5 [1] (setting [9]); 16.1 µM with AMO-1 (setting [11]); 1.18e-05 M in the series with MV-4-11 (setting [12]); 5.5e-06 M with SUDHL10 [4] (Homo sapiens, SU-DHL10, 5 h); 3.4e-06 M with SUDHL5 [5] (Homo sapiens, SU-DHL-5, 5 h); 1e-08 M against MCL-1. In addition, the figures for the EC50 with SUDHL5 [2] (setting [10]) and in the series with SUDHL10 [3] (setting [13]) were 4.6e-06 M and 1.2e-05 M, respectively.
In the case of `Cc1c2c(nn1C)COCc1ccccc1Cn1c(C(=O)O)c(CCCOc3cccc4cc(F)ccc34)c3ccc(F)c-2c31` (racemic) [Example 64, (rac)-15-Fluoro-1-(3-((6-fluoronaphthalen-1-yl)oxy)propyl)-13,14-dimethyl-4,9,11,13-tetrahydrobenzo[3,4]pyrazolo[4′,3′:9,10][1,6]oxaazacycloundecino[8,7,6-hi]indole-2-carboxylic Acid], the IC50 in the series on SUDHL5 [1] (setting [9]) was 1.5e-06 M; in the series on AMO-1 (setting [11]), 7.46 µM; with A2780 (setting [14]) it was 1.71e-05 M; with SUDHL10 [4] (Homo sapiens, SU-DHL10, 5 h) it was 3.2e-06 M; in the series on SUDHL5 [5] (Homo sapiens, SU-DHL-5, 5 h) it was 2.2e-06 M; on MCL-1 it was 1.5e-09 M. The figures for the EC50 in the series on SUDHL5 [2] (setting [10]) and in the series with SUDHL10 [3] (setting [13]) were 1.7e-06 M and 6e-06 M, respectively.
As to `Cc1c2c(nn1C)COCc1cccnc1Cn1c(C(=O)O)c(CCCOc3cccc4ccccc34)c3cccc-2c31` [Example 06], the IC50 in the series with AMO-1 (setting [6]) worked out at 19.9 µM; with MV-4-11 (setting [7]), 5.38e-06 M; in the series with A2780 (setting [8]), 8.66e-06 M.
Consider `Cc1c2c(nn1C)COCc1ccccc1Cn1c(C(=O)O)c(CCCOc3cccc4cc(F)ccc34)c3ccc(F)c-2c31` (single isomer, unassigned; enantiomer 2) [Example 66, (+)-3-Fluoro-17-{3-[(6-fluoronaphthalen-1-yl)oxy]propyl}-4,5-dimethyl-5,7,9,14-tetrahydroindolo[7,1-fg]pyrazolo[3,4-d][2,8]benzoxazacycloundecine-16-carboxylic acid-N-ethylethanamine Salt (Enantiomer 2)], for which the IC50 is 3.6e-06 M with SUDHL5 [1] (setting [15]); 7.13 µM and 7.07 µM in the series on AMO-1 (setting [17]); above 3.3e-05 M in the series with A2780 (setting [20]); 8.6e-06 M in the series with SUDHL10 [4]; 4.1e-06 M in the series on SUDHL5 [5]; 6.2e-09 M at MCL-1. Moreover, the EC50 in the series on SUDHL5 [2] (setting [16]) stood at 3.3e-06 M; in the series on SUDHL10 [3] (setting [19]), 1.2e-05 M.
As for `Cc1c2c(nn1C)COCc1ccccc1Cn1c(C(=O)O)c(CCCOc3cccc4ccccc34)c3ccc(F)c-2c31` (single isomer, unassigned; enantiomer 2) [Example 69, (+)-3-Fluoro-4,5-dimethyl-17-{3-[(naphthalen-1-yl)oxy]propyl}-5,7,9,14-tetrahydroindolo[7,1-fg]pyrazolo[3,4-d][2,8]benzoxazacycloundecine-16-carboxylic acid-N-ethylethanamine Salt (Enantiomer 2)], the IC50 in the series with SUDHL5 [1] (setting [15]) is 1.2e-05 M; in the series with AMO-1 (setting [17]), 26 µM; in the series with MV-4-11 (setting [18]), 1.51e-05 M; in the series on SUDHL10 [4], above 3.3e-05 M; in the series on SUDHL5 [5], 1.4e-05 M; against MCL-1, 2.1e-08 M. Further, the results for the EC50 in the series on SUDHL5 [2] (setting [16]) and with SUDHL10 [3] (setting [19]) were 1.3e-05 M and above 3.3e-05 M, respectively.
